Experiment: Recovery rate of zinc bacitracin in various feeds on storage at ambient temperature
Type: physicochemical
Details: initial 1,000 ppm = 100%
Description: Stabilization of the active substance zinc bacitracin is achieved with the process according to the invention.

Substance: zinc bacitracin [Untreated control]
- Recovery rate of zinc bacitracin (ZBA) in % (meal feed 2.16 mineral supplement, 1.5 weeks): 94.6%
- Recovery rate of zinc bacitracin (ZBA) in % (meal feed 2.16 mineral supplement, 4 weeks): 91.2%
- Recovery rate of zinc bacitracin (ZBA) in % (meal feed 2.16 mineral supplement, 6 weeks): 68.5%
- Recovery rate of zinc bacitracin (ZBA) in % (meal feed 2.16 mineral supplement, 8 weeks): 73.7%
- Recovery rate of zinc bacitracin (ZBA) in % (meal feed 2.6 complete feed for fattening pigs, 1.5 weeks): 116.4%
- Recovery rate of zinc bacitracin (ZBA) in % (meal feed 2.6 complete feed for fattening pigs, 4 weeks): 107.6%
- Recovery rate of zinc bacitracin (ZBA) in % (meal feed 2.6 complete feed for fattening pigs, 6 weeks): 93.1%
- Recovery rate of zinc bacitracin (ZBA) in % (meal feed 2.6 complete feed for fattening pigs, 8 weeks): 83.3%
- Recovery rate of zinc bacitracin (ZBA) in % (meal feed 7.4 complete feed for fattening chicks, 1.5 weeks): 89.8%
- Recovery rate of zinc bacitracin (ZBA) in % (meal feed 7.4 complete feed for fattening chicks, 4 weeks): 82.9%
- Recovery rate of zinc bacitracin (ZBA) in % (meal feed 7.4 complete feed for fattening chicks, 6 weeks): 66.2%
- Recovery rate of zinc bacitracin (ZBA) in % (meal feed 7.4 complete feed for fattening chicks, 8 weeks): 51.9%
- Recovery rate of zinc bacitracin (ZBA) in % (meal feed 7.7 complete feed for laying hens, 1.5 weeks): 96.5%
- Recovery rate of zinc bacitracin (ZBA) in % (meal feed 7.7 complete feed for laying hens, 4 weeks): 98.8%
- Recovery rate of zinc bacitracin (ZBA) in % (meal feed 7.7 complete feed for laying hens, 6 weeks): 86.4%
- Recovery rate of zinc bacitracin (ZBA) in % (meal feed 7.7 complete feed for laying hens, 8 weeks): 80.4%
- Recovery rate of zinc bacitracin (ZBA) in % (pellet feed 2.6 complete feed for fattening pigs, 1.5 weeks): 90.5%
- Recovery rate of zinc bacitracin (ZBA) in % (pellet feed 2.6 complete feed for fattening pigs, 4 weeks): 75.7%
- Recovery rate of zinc bacitracin (ZBA) in % (pellet feed 2.6 complete feed for fattening pigs, 6 weeks): 48.8%
- Recovery rate of zinc bacitracin (ZBA) in % (pellet feed 2.6 complete feed for fattening pigs, 8 weeks): 40.8%
- Recovery rate of zinc bacitracin (ZBA) in % (pellet feed 7.4 complete feed for fattening chicks, 1.5 weeks): 67.5%
- Recovery rate of zinc bacitracin (ZBA) in % (pellet feed 7.4 complete feed for fattening chicks, 4 weeks): 40.2%
- Recovery rate of zinc bacitracin (ZBA) in % (pellet feed 7.4 complete feed for fattening chicks, 6 weeks): 24.9%
- Recovery rate of zinc bacitracin (ZBA) in % (pellet feed 7.4 complete feed for fattening chicks, 8 weeks): 21.4%
- Recovery rate of zinc bacitracin (ZBA) in % (pellet feed 7.7 complete feed for laying hens, 1.5 weeks): 81.5%
- Recovery rate of zinc bacitracin (ZBA) in % (pellet feed 7.7 complete feed for laying hens, 4 weeks): 65.8%
- Recovery rate of zinc bacitracin (ZBA) in % (pellet feed 7.7 complete feed for laying hens, 6 weeks): 51.1%
- Recovery rate of zinc bacitracin (ZBA) in % (pellet feed 7.7 complete feed for laying hens, 8 weeks): 42.4%

— patent publication US5750135A, “Stabilized feed additive and process for the preparation thereof” (Boehringer Ingelheim Vetmedica GmbH, priority 1987, dated 1998)
